Assay results from patent publication US11352330B2, “Phenoxymethyl derivatives” (Hoffmann-La Roche Inc., priority 2015, dated 2022).

molecular target: human ATX (Homo sapiens (Human), UniProt Q13822); assay: Human ATX enzyme inhibition assay (fluorescence quenching, MR121 substrate); type: biochemical; details: human His-tagged ATX 30 nM, MR121 substrate 1 μM, 30° C.
Outline: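 Human His-tagged ATX (30 nM final) preincubated 15 min at 30 °C with serially diluted compounds in Tris buffer pH 8.0 with Ca2+, Mg2+ and 0.01% Triton X-100. MR121/tryptophan-labelled substrate analogue (1 μM final) then added for 15 min at 30 °C; cleavage read by fluorescence dequenching.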

| SMILES | IC50 |
| --- | --- |
| Cc1cc(OCc2ccc(=O)[nH]n2)c(C(C)(C)C#N)cc1Cl [Example C9, 2-[5-chloro-4-methyl-2-[(6-oxo-1H-pyridazin-3-yl)methoxy]phenyl]-2-methylpropanenitrile] | 46 nM |
| Cn1ccnc1-c1ccc(OCc2n[nH]c(=O)n2C)c(C(C)(C)C)c1 [Example A6] | 523 nM |
| Cn1c(COc2cc(NS(C)(=O)=O)c(Cl)cc2C2CC2)n[nH]c1=O [Example A23] | > 27000 nM |
| Cc1cc(OCc2n[nH]c(=O)n2C)c(-c2cccc(C(=O)NC3CCCCC3)c2)cc1Cl [Example B9] | 12 nM |
| Cc1cc(OCc2n[nH]c(=O)n2C)c(-c2c(F)ccc3c2oc(=O)n3C)cc1Cl [Example B77] | 15 nM |
| Cc1cc(OCc2n[nH]c(=O)n2C)c(-c2cccc(C(=O)N(C)C)c2)cc1Cl [Example B12] | 22 nM |
| Cn1c(COc2cc(Cl)c(C#N)cc2-c2ccccc2)n[nH]c1=O [Example B31] | 43 nM |
| Cn1c(COc2ccc(S(C)(=O)=O)cc2C(C)(C)C)n[nH]c1=O [Example A15] | 230 nM |
| COc1cccc(-c2cc(Cl)c(C)cc2OCc2n[nH]c(=O)n2C)n1 [Example B21] | 104 nM |
| Cn1c(COc2cc(Cl)c(C#N)cc2-c2cc(OCC3CCCO3)ccc2F)n[nH]c1=O (centres unmarked) [Example B87] | 5 nM |
| Cn1c(COc2cc(Cl)c(C#N)cc2-c2cccc(F)c2)n[nH]c1=O [Example B85] | 21 nM |
| Cc1cc(OCc2n[nH]c(=O)n2C)c(-c2cc(C(=O)N3CCCCC3)ccc2F)cc1Cl [Example B69] | 9 nM |
| Cc1cc(OCc2ccc(=O)[nH]n2)c(C(C)(C)C)cc1Cl [Example C8, 3-[(2-tert-butyl-4-chloro-5-methylphenoxy)methyl]-1H-pyridazin-6-one] | 5 nM |
| Cc1cc(OCc2n[nH]c(=O)n2C)c(-c2cccc(C(N)=O)c2)cc1Cl [Example B11] | 166 nM |
| Cn1c(COc2ccc(-c3ncco3)cc2C(C)(C)C)n[nH]c1=O [Example A7] | 13 nM |
| COc1cccc(-c2cc(C#N)c(Cl)cc2OCc2n[nH]c(=O)n2C)c1F [Example B88] | 1 nM |
| N#Cc1cc(-c2ccccc2)c(OCc2ccc(=O)[nH]n2)cc1Cl [Example C12] | 3 nM |
| Cc1cc(OCc2n[nH]c(=O)n2C)c(-c2cc(C(=O)N3CCN(C)C(=O)C3)ccc2F)cc1Cl [Example B65] | 13 nM |
| Cc1cc(OCc2n[nH]c(=O)n2C)c(-c2cc(C(=O)O)ccc2C)cc1Cl [Example B50, 3-[5-chloro-4-methyl-2-[(4-methyl-5-oxo-1H-1,2,4-triazol-3-yl)methoxy]phenyl]-4-methylbenzoic acid] | 173 nM |
| COc1cccc(-c2cc(Cl)c(C)cc2OCc2n[nH]c(=O)n2C)c1F [Example B90] | 7 nM |
| Cn1c(COc2cc(S(C)(=O)=O)c(Cl)cc2C2CC2)n[nH]c1=O [Example A14] | 1890 nM |
| Cc1cc(OCc2n[nH]c(=O)n2C)c(-c2cccc(C#N)c2)cc1Cl [Example B5] | 3 nM |
| Cc1cc(OCc2n[nH]c(=O)n2C)c(-c2cncn2C)cc1Cl [Example B27, 3-[[4-Chloro-5-methyl-2-(3-methylimidazol-4-yl)phenoxy]methyl]-4-methyl-1H-1,2,4-triazol-5-one] | 3720 nM |
| COC(=O)CCNC(=O)c1cccc(-c2cc(Cl)c(C)cc2OCc2n[nH]c(=O)n2C)c1 [Example B44, Methyl 3-[[3-[5-chloro-4-methyl-2-[(4-methyl-5-oxo-1H-1,2,4-triazol-3-yl)methoxy]phenyl]benzoyl]amino]propanoate] | 13 nM |
| Cc1cc(OCc2n[nH]c(=O)n2C)c(-c2cccc(C(=O)O)c2)cc1Cl [Example B43, 3-[5-Chloro-4-methyl-2-[(4-methyl-5-oxo-1H-1,2,4-triazol-3-yl)methoxy]phenyl]benzoic acid] | 1100 nM |
| Cc1cc(OCc2n[nH]c(=O)n2C)c(-c2cc(C(=O)N(C)CCO)ccc2F)cc1Cl [Example B64] | 21 nM |
| Cc1cc(OCc2n[nH]c(=O)n2C)c(-c2cccc(C(=O)Nc3ccccc3)c2)cc1Cl [Example B13] | 6 nM |

Further lines, results first:

| IC50 | SMILES |
| --- | --- |
| 9 nM | Cc1cc(OCc2n[nH]c3cnccc23)c(-c2cc(C(=O)N3CCN(C)C(=O)C3)ccc2F)cc1Cl [Example D44, 4-[3-[5-Chloro-4-methyl-2-(1H-pyrazolo[3,4-c]pyridin-3-ylmethoxy)phenyl]-4-fluorobenzoyl]-1-methylpiperazin-2-one] |
| 245000 nM | CC(C)(C)c1cc(S(C)(=O)=O)ccc1OCc1n[nH]c2ccccc12 [Example D1] |
| 3 nM | N#Cc1cc(-c2cc(OC(F)(F)F)ccc2F)c(OCc2n[nH]c3ncccc23)cc1Cl [Example D55] |
| 4 nM | Cc1cc(OCc2n[nH]c3ncccc23)c(C(C)(C)C)cc1Cl [Example D3, 3-[(2-tert-Butyl-4-chloro-5-methylphenoxy)methyl]-1H-pyrazolo[3,4-b]pyridine] |
| 22 nM | COc1ncccc1-c1cc(Cl)c(C)cc1OCc1n[nH]c2ncccc12 [Example D20] |
| 13 nM | CN(CCO)c1ccc2c(COc3cc(F)c(Cl)cc3C(C)(C)C)n[nH]c2n1 [Example D14] |
| 15 nM | COCC(=O)N1CCc2c(COc3cc(C)c(Cl)cc3C(C)(C)C)n[nH]c2C1 [Example E6, 1-(3-((2-tert-Butyl-4-chloro-5-methylphenoxy)methyl)-4,5-dihydro-1H-pyrazolo[3,4-c]pyridin-6(7H)-yl)-2-methoxyethanone] |
| 10 nM | COC(=O)c1cc(COc2cc(C)c(Cl)cc2C(C)(C)C)n[nH]1 [Example F3, Methyl 3-((2-(tert-butyl)-4-chloro-5-methylphenoxy)methyl)-1H-pyrazole-5-carboxylate] |
| 6 nM | Cc1cc(OCc2n[nH]c3nc(N(C)CCO)ccc23)c(C(C)(C)C)cc1Cl [Example D8, 2-[[3-[(2-tert-Butyl-4-chloro-5-methylphenoxy)methyl]-1H-pyrazolo[3,4-b]pyridin-6-yl]-methylamino]ethanol] |
| 4.5 nM | CC(C)(C)c1cc(Cl)c(F)cc1OCc1n[nH]c2nc(NCCO)ccc12 [Example D11] |
| 17 nM | Cc1cc(OCc2n[nH]c3ncccc23)c(-c2cccc(C(=O)N(C)C)c2)cc1Cl [Example D18] |
| 2 nM | Cc1cc(OCc2n[nH]c3ncccc23)c(-c2cccc(C(=O)N3CCOCC3)c2)cc1Cl [Example D17, [3-[5-Chloro-4-methyl-2-(1H-pyrazolo[3,4-b]pyridin-3-ylmethoxy)phenyl]phenyl]-morpholin-4-ylmethanone] |
| 18 nM | Cc1cc(OCc2cc[nH]n2)c(C(C)(C)C)cc1C#N [Example F2, 4-((1H-Pyrazol-3-yl)methoxy)-5-tert-butyl-2-methylbenzonitrile] |
| 98 nM | Cc1cc(OCc2n[nH]c3cccnc23)c(-c2cc(C(=O)N(C)C)ccc2F)cc1Cl [Example D28] |
| 7 nM | Cc1cc(OCc2n[nH]c3nc(OCCO)ncc23)c(C(C)(C)C)cc1Cl [Example D31, 2-[[3-[(2-tert-Butyl-4-chloro-&-methylphenoxy)methyl]-1H-pyrazolo[3,4-d]pyrimidin-6-yl]oxy]ethanol] |
| 2 nM | Cc1cc(C(C)(C)C)c(OCc2n[nH]c3cnccc23)cc1C#N [Example D49] |
| 9 nM | Cc1cc(OCc2n[nH]c3nc(OCCO)ncc23)c(C(C)(C)C)cc1C#N [Example D38, 5-tert-Butyl-4-[[6-(2-hydroxyethoxy)-1H-pyrazolo[3,4-d]pyrimidin-3-yl]methoxy]-2-methylbenzonitrile] |
